Test results from PubChem BioAssay AID248 (DTP/NCI, 2004).
Values joined by “and” are separate entries in the source; they are usually repeats but may differ in a detail not shown here. Equal values may be shown once. Inconclusive results and toxic doses are left out. Cut-off read from the data, not from the text of the source: active = T/C of 150% or more; inactive = T/C below 125%.

Tested on: L1210 leukemia ip in BDF1 mice, survival T/C
Assay: NCI In Vivo Anticancer Drug Screen. Data for tumor model L1210 Leukemia (intraperitoneal) in B6D2F1 (BDF1) mice
Settings: endpoint: mean survival time, higher = longer survival
Procedure, shortened: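 Tumor cells were implanted, animals were treated, and survival was followed. The result divides the treated measurement by the vehicle-control measurement.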

[1] = dose: 100.0 mg/kg/injection, schedule: Q01DX009 (ip), vehicle: saline
[2] = dose: 100.0 mg/kg/injection, schedule: Q04DX003 (ip), vehicle: saline
[3] = dose: 200.0 mg/kg/injection, schedule: Q01DX009 (ip), vehicle: saline
[4] = dose: 200.0 mg/kg/injection, schedule: Q04DX003 (ip), vehicle: saline
[5] = dose: 400.0 mg/kg/injection, schedule: Q04DX003 (ip), vehicle: saline
[6] = dose: 6.25 mg/kg/injection, schedule: Q01DX009 (ip), vehicle: saline
[7] = dose: 12.5 mg/kg/injection, schedule: Q01DX009 (ip), vehicle: saline
[8] = dose: 25.0 mg/kg/injection, schedule: Q01DX009 (ip), vehicle: saline
[9] = dose: 100.0 mg/kg/injection, schedule: Q01DX001 (ip), vehicle: Klucel (hydroxypropylcellulose) (HPC)
[10] = dose: 200.0 mg/kg/injection, schedule: Q01DX001 (ip), vehicle: Klucel (hydroxypropylcellulose) (HPC)
[11] = dose: 400.0 mg/kg/injection, schedule: Q01DX001 (ip), vehicle: Klucel (hydroxypropylcellulose) (HPC)
[12] = dose: 50.0 mg/kg/injection, schedule: Q01DX009 (ip), vehicle: saline

Measured: T/C

O=C1OC(=O)C2CCC12 (stereo not drawn)
inactive: dose: 75.0 mg/kg/injection, schedule: Q01DX001 (ip), vehicle: saline 93 % of control | [1] 91 % of control | [2] 98 % of control | dose: 150.0 mg/kg/injection, schedule: Q01DX001 (ip), vehicle: saline 101 % of control | [3] 93 % of control | [4] 101 % of control | dose: 300.0 mg/kg/injection, schedule: Q01DX001 (ip), vehicle: saline 112 % of control | [5] 98 % of control

CCN1c2ccccc2C(Cl)(c2ccc(N(C)C)cc2)c2ccccc21
inactive: dose: 1.8 mg/kg/injection, schedule: Q03HX024 (ip), vehicle: saline 96 % of control | dose: 2.6 mg/kg/injection, schedule: Q03HX024 (ip), vehicle: saline 88 % of control | dose: 3.9 mg/kg/injection, schedule: Q03HX024 (ip), vehicle: saline 95 % of control | dose: 5.9 mg/kg/injection, schedule: Q03HX024 (ip), vehicle: saline 101 % of control | [6] 93 % of control | dose: 6.25 mg/kg/injection, schedule: Q04DX003 (ip), vehicle: saline 95 % of control | dose: 8.8 mg/kg/injection, schedule: Q01DX009 (ip), vehicle: saline 101 % of control | dose: 8.8 mg/kg/injection, schedule: Q03HX024 (ip), vehicle: saline 101 % of control and 104 % of control | dose: 12.5 mg/kg/injection, schedule: Q01DX001 (ip), vehicle: saline 101 % of control | [7] 115 % of control | dose: 12.5 mg/kg/injection, schedule: Q04DX003 (ip), vehicle: saline 108 % of control | dose: 13.0 mg/kg/injection, schedule: Q01DX009 (ip), vehicle: saline 105 % of control | dose: 18.0 mg/kg/injection, schedule: Q01DX001 (ip), vehicle: saline 103 % of control | dose: 18.0 mg/kg/injection, schedule: Q04DX003 (ip), vehicle: saline 104 % of control | dose: 20.0 mg/kg/injection, schedule: Q01DX009 (ip), vehicle: saline 106 % of control | dose: 25.0 mg/kg/injection, schedule: Q01DX001 (ip), vehicle: saline 111 % of control | [8] 112 % of control | dose: 25.0 mg/kg/injection, schedule: Q04DX003 (ip), vehicle: saline 104 % of control | dose: 26.0 mg/kg/injection, schedule: Q01DX001 (ip), vehicle: saline 103 % of control | dose: 26.0 mg/kg/injection, schedule: Q04DX003 (ip), vehicle: saline 102 % of control | dose: 30.0 mg/kg/injection, schedule: Q01DX009 (ip), vehicle: saline 98 % of control | dose: 39.0 mg/kg/injection, schedule: Q01DX001 (ip), vehicle: saline 104 % of control | dose: 39.0 mg/kg/injection, schedule: Q04DX003 (ip), vehicle: saline 103 % of control

Cc1cc(N=Cc2cccc([N+](=O)[O-])c2O)c2ccccc2n1
inactive: dose: 100.0 mg/kg/injection, schedule: Q01DX001 (ip), vehicle: other 101 % of control

N#Cc1cccc2c(/C=N\NC(N)=S)nccc12
inactive: dose: 100.0 mg/kg/injection, schedule: Q04DX002 (ip), vehicle: Klucel (hydroxypropylcellulose) (HPC) 106 % of control | dose: 200.0 mg/kg/injection, schedule: Q04DX002 (ip), vehicle: Klucel (hydroxypropylcellulose) (HPC) 95 % of control | dose: 400.0 mg/kg/injection, schedule: Q04DX002 (ip), vehicle: Klucel (hydroxypropylcellulose) (HPC) 87 % of control

CC(C)(C)c1ccc(OCCCOc2ccc(C(=O)O)cc2)cc1
inactive: [9] 97 % of control | dose: 100.0 mg/kg/injection, schedule: Q01DX009 (ip), vehicle: saline sonified 103 % of control | [10] 103 % of control | dose: 200.0 mg/kg/injection, schedule: Q01DX009 (ip), vehicle: saline sonified 118 % of control | [11] 100 % of control | dose: 400.0 mg/kg/injection, schedule: Q01DX009 (ip), vehicle: saline sonified 94 % of control

CCCCCCCCCCCC[n+]1cccc(C)c1
inactive: dose: 5.0 mg/kg/injection, schedule: Q01DX001 (ip), vehicle: saline 94 % of control

c1ccncc1
inactive: dose: 6.25 mg/kg/injection, schedule: Q01DX009 (ip), vehicle: alcohol 96 % of control | dose: 12.5 mg/kg/injection, schedule: Q01DX009 (ip), vehicle: alcohol 93 % of control | dose: 25.0 mg/kg/injection, schedule: Q01DX009 (ip), vehicle: alcohol 93 % of control | dose: 100.0 mg/kg/injection, schedule: Q01DX009 (ip), vehicle: Klucel (hydroxypropylcellulose) (HPC) 88 % of control | [1] 93 % of control | dose: 100.0 mg/kg/injection, schedule: Q04DX003 (ip), vehicle: Klucel (hydroxypropylcellulose) (HPC) 101 % of control | [2] 101 % of control | [3] 93 % of control | dose: 200.0 mg/kg/injection, schedule: Q04DX003 (ip), vehicle: Klucel (hydroxypropylcellulose) (HPC) 106 % of control | [4] 89 % of control | dose: 400.0 mg/kg/injection, schedule: Q01DX009 (ip), vehicle: saline 86 % of control | dose: 400.0 mg/kg/injection, schedule: Q04DX003 (ip), vehicle: Klucel (hydroxypropylcellulose) (HPC) 95 % of control | [5] 91 % of control

CC(=O)Nc1ccc(CCCCc2cccc(C(=N)N)c2)cc1
inactive: [7] 101 % of control | dose: 12.5 mg/kg/injection, schedule: Q04DX003 (ip), vehicle: Klucel (hydroxypropylcellulose) (HPC) 102 % of control | [8] 101 % of control | dose: 25.0 mg/kg/injection, schedule: Q04DX003 (ip), vehicle: Klucel (hydroxypropylcellulose) (HPC) 100 % of control | [12] 95 % of control | dose: 50.0 mg/kg/injection, schedule: Q04DX003 (ip), vehicle: Klucel (hydroxypropylcellulose) (HPC) 102 % of control

O=c1[nH]c(C(F)(F)F)c(CCc2ccccc2)c(=O)[nH]1
inactive: [9] 103 % of control | [10] 110 % of control | [11] 107 % of control

O=C(Nc1ccc(Br)cc1)c1cc(Br)cc(Br)c1O
inactive: dose: 1.56 mg/kg/injection, schedule: Q04DX002 (ip), vehicle: saline 100 % of control | dose: 3.12 mg/kg/injection, schedule: Q04DX002 (ip), vehicle: saline 100 % of control | dose: 6.25 mg/kg/injection, schedule: Q04DX002 (ip), vehicle: saline 97 % of control | dose: 12.5 mg/kg/injection, schedule: Q04DX002 (ip), vehicle: saline 103 % of control and 107 % of control | dose: 25.0 mg/kg/injection, schedule: Q04DX002 (ip), vehicle: saline 104 % of control and 89 % of control

C/C=C/COc1cc[n+]([O-])cc1
inactive: [2] 102 % of control | [4] 107 % of control

C/C=C\C#N
inactive: [1] 106 % of control | [2] 103 % of control | [3] 108 % of control | [4] 113 % of control

CON(C)CC(Cl)c1ccccc1 (stereo not drawn)
inactive: [6] 100 % of control | dose: 6.25 mg/kg/injection, schedule: Q04DX003 (ip), vehicle: saline with Tween-80 98 % of control | [7] 100 % of control | dose: 12.5 mg/kg/injection, schedule: Q04DX003 (ip), vehicle: saline with Tween-80 96 % of control | [8] 92 % of control | dose: 25.0 mg/kg/injection, schedule: Q04DX003 (ip), vehicle: saline with Tween-80 104 % of control | [12] 92 % of control | dose: 50.0 mg/kg/injection, schedule: Q04DX003 (ip), vehicle: saline with Tween-80 96 % of control and 98 % of control
